Experimental findings from ChEMBL document CHEMBL3244202, “Synthesis and analgesic-antiinflammatory activity of some 4- and 5-substituted heteroarylsalicylic acids” (J Med Chem, 1978) are described below.

In brackets after ≈: the same amount, converted by molar mass. Where only a bound is given, the exact number is not on record here.

In data set [1] the test system is Rattus norvegicus. Put plainly: Antiinflammatory activity in po dosed rat assessed as inhibition of carrageenan-induced paw edema. The class given is functional.
In data set [2] the test system is Rattus norvegicus. Put plainly: Analgesic activity in po dosed rat by hyperesthesia test. The class given is functional.
A short description of data set [3]: Aqueous solubility of the compound in phosphate buffer at pH 7. The class given is physicochemical.
Data set [4] relates to Canis familiaris. Put plainly: Antiinflammatory activity in po dosed dog assessed as reduction in urate synovitis measured after 2 hrs. Type of data set: functional. The note with it: Canis lupus familiaris.
The species named for data set [5] is Homo sapiens. As to the kind of experiment: Inhibition of prostaglandin synthetase (unknown origin).
Data set [6] relates to Rattus norvegicus. Put plainly: Antipyretic activity in po dosed rat administered on days 17 to 20 measured on day 20. To be noted: 480 h.
Data set [7] has as its system Rattus norvegicus. Put plainly: Antiinflammatory activity in po dosed Wistar rat assessed as reduction in adjuvant arthritis-induced lesion administered on days -1 through 1 measured on days 0 and 14.
In data set [8] the test system is Rattus norvegicus. As to the kind of experiment: Antiinflammatory activity in po dosed rat assessed as reduction in adjuvant arthritis-induced lesion administered for 1 to 14 days measured on day 14. The class given is functional.
Data set [9] has as its system Rattus norvegicus. Put plainly: Antiinflammatory activity in po dosed rat assessed as reduction in adjuvant arthritis-induced lesion administered on days 17 to 20 post adjuvant arthritis-challenge measured on day 20. The class given is functional. The note with it: 480 h.
Data set [10] concerns Rattus norvegicus. As to the kind of experiment: Gastrointestinal toxicity in rat assessed as gastric hemorrhage administered on days 17 to 20 measured on day 20. The class given is organism-based, Stomach. The note with it: in vivo.
The subject of data set [11] is Rattus norvegicus. As to the kind of experiment: Antipyretic activity in po dosed rat assessed as dose required to produce drop in body temperature of 1 degC administered on days 17 to 20 measured on day 20. The class given is functional. To be noted: 480 h.

For the compound `O=C(O)c1cc(-c2ccns2)ccc1O`, the ED50 in data set [1] was 80 mg/kg; in [2], greater than 80 mg/kg. Moreover, the solubility in data set [3] worked out at 7.3 mg/mL (≈ 33 mM).
For the compound `O=C(O)c1cc(-c2cc[nH]n2)ccc1O`, the ED50 in [1] was greater than 250 mg/kg.
As to `O=C(O)c1ccc(-c2cscn2)cc1O`, the values for the ED50 in data set [1] and in data set [2] were 70 mg/kg and greater than 80 mg/kg, respectively. The same compound displayed a solubility in data set [3] of 8.7 mg/mL (≈ 39.3 mM).
In the case of `CC(=O)Oc1ccccc1C(=O)O` [ASPIRIN], the ED50 in [4] came to 68 mg/kg; in data set [1], 90 mg/kg; in data set [6], 43 mg/kg; in [7], 46 mg/kg; in data set [8] it was 33 mg/kg; in data set [9], 25 mg/kg. In addition, the figures for the ED50 in data set [10] and in [2] were 16 mg/kg and 90 mg/kg, respectively. In [5], this compound registered an ID50 of 5 mg/L (≈ 0.0278 mM).
Take `O=C(O)c1cc(-c2c[nH]cn2)ccc1O`: the ED50 in data set [1] turned out to be 100 mg/kg. Also, in data set [3], the solubility was 1.1 mg/mL (≈ 5.39 mM).
Turning to `O=C(O)c1cc(-c2cccnc2)ccc1O`, the ED50 in data set [1] was greater than 250 mg/kg.
On to `O=C(O)c1cc(-n2nccn2)ccc1O`, for which the ED50 in data set [1] amounted to 150 mg/kg.
With `O=C(O)c1cc(-n2cccn2)ccc1O`, the ED50 in data set [1] was found to be 200 mg/kg.
Same read-out and setting: for `O=C(O)c1cc(-c2cncs2)ccc1O` the value was greater than 200 mg/kg; for `O=C(O)c1cc(-c2csnn2)ccc1O`, greater than 200 mg/kg.
Consider `O=C(O)c1ccccc1O` [SALICYLIC ACID], for which the ED50 was 200 mg/kg in data set [1] and greater than 150 mg/kg in [2].
As to `O=C(O)c1ccc(-c2ncco2)cc1O`, the ED50 in data set [1] was greater than 250 mg/kg.
The same measure, in the same setting: then `O=C(O)c1cc(-c2ccncn2)ccc1O`, with greater than 200 mg/kg.
On to `O=C(O)c1cc(-n2cccc2)ccc1O`, for which the ED50 in data set [4] was 39 mg/kg; in data set [1], 50 mg/kg; in data set [7] it was 58 mg/kg; in data set [8], 64 mg/kg; in data set [9], 35 mg/kg; in data set [10] it was greater than 800 mg/kg. This compound also came in with an ED50 in [2] of 30 mg/kg. Moreover, the ID50 in data set [5] worked out at 0.3 mg/L (≈ 0.00148 mM). Further, the ED10 in data set [11] is 401 mg/kg. Further, in data set [3], the concentration in solution (solubility) came to 8.6 mg/mL (≈ 42.3 mM).
As for `O=C(O)c1cc(-c2ccc(F)cc2F)ccc1O` [DIFLUNISAL], the ED50 worked out at 9.8 mg/kg in data set [1] and 4.6 mg/kg in data set [2].
`O=C(O)c1cc(-n2cncn2)ccc1O`: the ED50 in data set [1] was determined as 200 mg/kg.
Same read-out and setting: for `O=C(O)c1cc(-c2nccs2)ccc1O` the value was greater than 250 mg/kg; for `O=C(O)c1ccc(-c2nccs2)cc1O`, 110 mg/kg; for `O=C(O)c1cc(-c2ccno2)ccc1O`, 110 mg/kg.
On the same count and under the same terms, then `O=C(O)c1cc(-n2cnnc2)ccc1O`, with greater than 250 mg/kg; and `O=C(O)c1cc(-n2ccnn2)ccc1O`, with 150 mg/kg.
As for `O=C(O)c1cc(-c2ncccn2)ccc1O`, the ED50 in data set [1] is 100 mg/kg. The concentration in solution in data set [3] (solubility) was 6 mg/mL (≈ 27.8 mM).
The matching figures for `O=C(O)c1cc(-c2ncco2)ccc1O`: 100 mg/kg and 6 mg/mL (≈ 29.2 mM).
As for `O=C(O)c1cc(-n2ccnc2)ccc1O`, the ED50 in [1] worked out at 75 mg/kg; in [2], 65 mg/kg. The compound also gave a solubility in data set [3] of 2 mg/mL (≈ 9.8 mM).
For the compound `O=C(O)c1cc(C2N=NN=N2)ccc1O`, the ED50 in [1] is 110 mg/kg. The compound also showed a solubility in [3] of 1.7 mg/mL (≈ 8.25 mM).
Take `O=C(O)c1cc(-c2cocn2)ccc1O`: in [1], the ED50 was determined as 110 mg/kg.
The same measure, in the same setting: then `O=C(O)c1cc(-c2ccccn2)ccc1O`, with 200 mg/kg; and `O=C(O)c1ccc(-n2cccc2)cc1O`, with 200 mg/kg.
As for `O=C(O)c1cc(-c2cscn2)ccc1O`, the figures for the ED50 in data set [1] and in data set [2] were 95 mg/kg and 90 mg/kg, respectively. The concentration in solution in [3] (solubility) was 2.7 mg/mL (≈ 12.2 mM).
For the compound `O=C(O)c1cc(-c2ncc[nH]2)ccc1O`, the ED50 in data set [1] is 200 mg/kg.
As for `CCCCOC(=O)Oc1ccc(-n2cccc2)cc1C(=O)O`, the results for the ED50 in data set [1] and in data set [2] were 52 mg/kg and 38 mg/kg, respectively.
Regarding `O=C(O)c1cc(-c2cnco2)ccc1O`, the ED50 in data set [1] is greater than 200 mg/kg.
Regarding `CC(=O)Oc1ccc(-n2cccc2)cc1C(=O)O`, the ED50 in data set [1] is 42 mg/kg; in data set [2], 35 mg/kg.
For the compound `O=C(O)c1cc(-c2cccs2)ccc1O`, the ED50 in data set [1] came to 60 mg/kg. The same compound registered a solubility in data set [3] of 7 mg/mL (≈ 31.8 mM).
